Reference: patent US12319701B2, “Antagonists of the muscarinic acetylcholine receptor M4” (priority 2019, dated 2025)

Key:
[1] = test system: catalepsy induced by the DA receptor antagonist haloperidol; assay: Reversal of haloperidol-induced catalepsy by scopolamine in mice; type: in vivo
From the text: Furthermore, haloperidol-induced catalepsy, a model of parkinsonian motor disability, is reduced in M4 knockout mice as compared to wild-type controls. […] The reversal by scopolamine was uncommonly robust and more pronounced than we observe with agents targeting a number of other targets being evaluated for potential antiparkinsonian effects, including metabotropic glutamate (mGlu) receptors mGlu4 or mGlu5, A2A adenosine receptors, and NMDA receptors. […] Taken together with the extensive studies of M4 modulation of basal ganglia and motor function, these studies provide compelling evidence that M4 is the dominant mAChR subtype involved in the antiparkinsonian effects of non-selective mAChR antagonists and provide support for discovery and development of selective M4 antagonists for treatment of neurodegenerative disease such as PD, dystonia, tardive dyskinesia and other movement disorders.

Human M4 = target: T1, Human M4 (Homo sapiens, UniProt P08173); assay: mAChR M4 cell-based functional assay (calcium flux, Fluo-4, M4/Gqi5/CHO-K1 cells); details: for remaining activity at 30 µM: CHO-K1, read-out: Human M4 Emin (%), % ACh maximum at 30 μM
T1 construct: expressed in transfected cells; host or cells: CHO-K1 (ATCC), stably co-expressing chimeric G protein Gqi5
T1 sequence (P08173 1-479): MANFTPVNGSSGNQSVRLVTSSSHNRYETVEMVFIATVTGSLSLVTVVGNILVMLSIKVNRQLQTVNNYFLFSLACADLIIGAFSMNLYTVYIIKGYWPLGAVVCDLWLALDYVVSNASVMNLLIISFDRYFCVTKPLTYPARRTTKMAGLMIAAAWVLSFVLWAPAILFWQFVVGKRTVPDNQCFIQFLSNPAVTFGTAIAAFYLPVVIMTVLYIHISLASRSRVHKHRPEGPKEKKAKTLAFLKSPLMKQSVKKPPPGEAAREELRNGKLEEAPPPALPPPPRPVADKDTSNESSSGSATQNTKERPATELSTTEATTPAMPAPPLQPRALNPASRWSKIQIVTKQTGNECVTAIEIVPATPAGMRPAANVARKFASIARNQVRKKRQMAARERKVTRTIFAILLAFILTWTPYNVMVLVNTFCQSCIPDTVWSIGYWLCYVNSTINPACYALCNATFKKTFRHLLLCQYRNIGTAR
Experimental: Human or rat M4 cDNA, along with the chimeric G protein Gqi5, were transfected into Chinese hamster ovary (CHO-K1) cells purchased from the American Type Culture Collection using Lipofectamine2000. M4/Gqi5/CHO cells were grown in Ham's F-12 medium containing 10% heat-inactivated fetal bovine serum (FBS), 20 mM HEPES, 500 μg/mL 418 sulfate, and 200 μg/mL Hygromycin B.
For high throughput measurement of agonist-evoked increases in intracellular calcium, CHO-K1 cells stably expressing muscarinic receptors were plated in growth medium lacking 418 and hygromycin at 15,000 cells/20 μL/well in Greiner 384-well black-walled, tissue culture (TC)-treated, clear-bottom plates (VWR). Cells were incubated overnight at 37° C. and 5% CO2. The next day, cells were washed using an ELX 405 (BioTek) with assay buffer; the final volume was then aspirated to 20 μL. Next, 20 μL of a 2.3 μM stock of Fluo-4/acetoxymethyl ester (Invitrogen, Carlsbad, CA), prepared as a 2.3 mM stock in DMSO and mixed in a 1:1 ratio with 10% (w/v) Pluronic F-127 and diluted in assay buffer, was added to the wells and the cell plates were incubated for 50 min at 37° C. and 5% CO2. Dye was removed by washing with the ELX 405 and the final volume was aspirated to 20 μL. Compound master plates were formatted in a 10 point concentration-response curve (CRC) format (1:3 dilutions) in 100% DMSO with a starting concentration of 10 or 1 mM using a BRAVO liquid handler (Agilent). Test compound CRCs were then transferred to daughter plates (240 nL) using the Echo acoustic plate reformatter (Labcyte, Sunnyvale, CA) and then diluted into assay buffer (40 μL) to a 2× stock using a Thermo Fisher Combi (Thermo Fisher Scientific, Waltham, MA).
Calcium flux was measured using the Functional Drug Screening System (FDSS) 6000 or 7000 (Hamamatsu Corporation, Tokyo, Japan) as an increase in the fluorescent static ratio. Compounds were applied to cells (20 μL, 2×) using the automated system of the FDSS at 2 seconds into the protocol and the data were collected at 1 Hz. At 143 s, 10 μL of an EC20 concentration of the muscarinic receptor agonist acetylcholine was added (5×), followed by the addition of 12 μL of an EC80 concentration of acetylcholine at the 268 s time point (5×). Agonist activity was analyzed as a concentration-dependent increase in calcium mobilization upon compound addition. Positive allosteric modulator activity was analyzed as a concentration-dependent increase in the EC20 acetylcholine response. Antagonist activity was analyzed as a concentration-dependent decrease in the ECK) acetylcholine response; for the purposes of the tables herein, an IC50 (inhibitory concentration 50) was calculated as a concentration-dependent decrease of the response elicited by an ECK) concentration of acetylcholine. Concentration-response curves were generated using a four-parameter logistical equation in XLFit curve fitting software (IDBS, Bridgewater, NJ) for Excel (Microsoft, Redmond, WA) or Prism (GraphPad Software, Inc., San Diego, CA) or the Dotmatics software platform (Dotmatics, Bishop's Stortford, UK).
Compounds were synthesized as described above. Activity (IC50 and Emin) was determined in the mAChR M4 cell-based functional assay as described above and the data are shown in Table 2.

| SMILES | IC50 (Human M4) [nM] | remaining activity at 30 µM (Human M4) [%] | Reduction of haloperidol-induced catalepsy ([1]; M4 KO mice) | Reversal of haloperidol-induced catalepsy ([1]; WT mice) |
| --- | --- | --- | --- | --- |
| CN1[C@@H]2C[C@@H](OC(=O)[C@H](CO)c3ccccc3)C[C@H]1[C@@H]1O[C@@H]12 [scopolamine] |  |  | ineffective in reducing catalepsy | completely reversed |
| Clc1nnc(N[C@H]2C[C@@H]3CN(CC4CCOCC4)C[C@@H]3C2)c2sccc12 [compound 12, 4-chloro-N-((3aR,5s,6aS)-2-((tetrahydro-2H-pyran-4-yl)methyl)octahydrocyclopenta[c]pyrrol-5-yl)thieno[2,3-d]pyridazin-7-amine] | 284 | 5 |  |  |
| Clc1nnc(N[C@H]2C[C@@H]3CN(CC4CCOCC4)C[C@@H]3C2)c2ccsc12 [compound 1, 7-chloro-N-((3aR,5s,6aS)-2-((tetrahydro-2H-pyran-4-yl)methyl)octahydrocyclopenta[c]pyrrol-5-yl)thieno[2,3-d]pyridazin-4-amine] | 204 | 3 |  |  |
| Cc1ccc(C)c(-c2nnc(N[C@H]3C[C@@H]4CN(CC5CCOCC5)C[C@@H]4C3)c3ccsc23)c1 [compound 4, 7-(2,5-dimethylphenyl)-N-((3aR,5s,6aS)-2-((tetrahydro-2H-pyran-4-yl)methyl)octahydrocyclopenta[c]pyrrol-5-yl)thieno[2,3-d]pyridazin-4-amine] | 13.6 | 3 |  |  |

The remaining compounds from weak to strong by IC50 (Human M4), led by results:

| IC50 (Human M4) [nM] | remaining activity at 30 µM (Human M4) [%] | SMILES | Reduction of haloperidol-induced catalepsy ([1]; M4 KO mice) | Reversal of haloperidol-induced catalepsy ([1]; WT mice) |
| --- | --- | --- | --- | --- |
| 12 | 3 | [2H]C([2H])(C1CCOCC1)N1C[C@H]2C[C@H](Nc3nnc(-c4cc(F)ccc4F)c4ccccc34)C[C@H]2C1 [compound 27, 4-(2,5-difluorophenyl)-N-((3aR,5s,6aS)-2-((tetrahydro-2H-pyran-4-yl)methyl-d2)octahydrocyclopenta[c]pyrrol-5-yl)phthalazin-1-amine] |  |  |
| 9.04 | 3 | Fc1cccc(-c2nnc(N[C@H]3C[C@@H]4CN(CC5CCOCC5)C[C@@H]4C3)c3c2CCCC3)c1 [compound 25, 4-(3-fluorophenyl)-N-((3aR,5s,6aS)-2-((tetrahydro-2H-pyran-4-yl)methyl)octahydrocyclopenta[c]pyrrol-5-yl)-5,6,7,8-tetrahydrophthalazin-1-amine] |  |  |
| 6.2 | 3 | Fc1ccccc1-c1nnc(N[C@H]2C[C@@H]3CN(CC4CCOCC4)C[C@@H]3C2)c2c1CCCC2 [compound 24, 4-(2-fluorophenyl)-N-((3aR,5s,6aS)-2-((tetrahydro-2H-pyran-4-yl)methyl)octahydrocyclopenta[c]pyrrol-5-yl)-5,6,7,8-tetrahydrophthalazin-1-amine] |  |  |
| 2.47 | 4 | Cc1ccccc1-c1nnc(N[C@H]2C[C@@H]3CN(CC4CCOCC4)C[C@@H]3C2)c2ccsc12 [compound 5, N-((3aR,5s,6aS)-2-((tetrahydro-2H-pyran-4-yl)methyl)octahydrocyclopenta[c]pyrrol-5-yl)-7-(o-tolyl)thieno[2,3-d]pyridazin-4-amine] |  |  |
| 2.31 | 3 | Fc1ccccc1-c1nnc(N[C@H]2C[C@@H]3CN(CC4CCOCC4)C[C@@H]3C2)c2sccc12 [compound 15, 4-(2-fluorophenyl)-N-((3aR,5s,6aS)-2-((tetrahydro-2H-pyran-4-yl)methyl)octahydrocyclopenta[c]pyrrol-5-yl)thieno[2,3-d]pyridazin-7-amine] |  |  |
| 1.6 | 3 | Cc1ccc(F)cc1-c1nnc(N[C@H]2C[C@@H]3CN(CC4CCOCC4)C[C@@H]3C2)c2sccc12 [compound 11, 4-(5-fluoro-2-methylphenyl)-N-((3aR,5s,6aS)-2-((tetrahydro-2H-pyran-4-yl)methyl)octahydrocyclopenta[c]pyrrol-5-yl)thieno[2,3-d]pyridazin-7-amine] |  |  |
| 1.46 | 4 | c1ccc(-c2nnc(N[C@H]3C[C@@H]4CN(CC5CCOCC5)C[C@@H]4C3)c3sccc23)cc1 [compound 14, 4-phenyl-N-((3aR,5s,6aS)-2-((tetrahydro-2H-pyran-4-yl)methyl)octahydrocyclopenta[c]pyrrol-5-yl)thieno[2,3-d]pyridazin-7-amine] |  |  |
